Assay results: patent US20260138978A1, “POSITIVE ALLOSTERIC MODULATORS OF THE MUSCARINIC ACETYLCHOLINE RECEPTOR M1” (Vanderbilt University, priority 2022, published 2026)

What was measured:
human mAChRM1 [1] = target: T1, human mAChRM1 (Homo sapiens, UniProt P11229); experiment: mAChR M1 cell-based functional assay (calcium mobilization), agonist activity upon compound addition, Emax relative to acetylcholine maximum; details: for EC50 / Agonist Activity Human M1 EC50: calcium mobilization upon compound addition; for Emax: relative to the maximum for acetylcholine
T1 construct: host or cells: CHO-K1
T1 sequence (P11229 1-460): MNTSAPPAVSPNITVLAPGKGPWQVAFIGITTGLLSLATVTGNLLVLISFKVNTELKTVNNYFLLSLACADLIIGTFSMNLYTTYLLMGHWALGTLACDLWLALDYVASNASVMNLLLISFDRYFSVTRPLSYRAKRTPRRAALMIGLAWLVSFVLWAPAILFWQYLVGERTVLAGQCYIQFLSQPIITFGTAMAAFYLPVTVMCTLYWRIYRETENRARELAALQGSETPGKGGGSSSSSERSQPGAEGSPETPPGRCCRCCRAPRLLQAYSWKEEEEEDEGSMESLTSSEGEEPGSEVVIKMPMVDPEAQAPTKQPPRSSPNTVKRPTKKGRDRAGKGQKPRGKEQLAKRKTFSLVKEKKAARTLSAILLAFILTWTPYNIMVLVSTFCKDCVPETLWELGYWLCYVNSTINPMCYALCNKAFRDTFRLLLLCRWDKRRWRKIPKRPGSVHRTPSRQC
Outline: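 Emax is given as a percentage of the maximal acetylcholine response, from four-parameter curves of compound-evoked calcium mobilization. Human M1-transfected CHO-K1 cells carried Fluo-4 dye, and compound (11 concentrations, 1:3 steps) was applied at 4 s of a 300 s kinetic fluorescence recording.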

human mAChRM1 [2] = target: T1, human mAChRM1; experiment: mAChR M1 cell-based functional assay (calcium mobilization), positive allosteric modulator activity: increase in the EC20 acetylcholine response; details: for Emax: PAM mode; for EC50: read-out: PAM Activity Human M1 EC50
Outline: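 Potentiation is scored as the rise in an EC20 acetylcholine-evoked calcium signal across 11-point (1:3) compound series, fitted with a four-parameter logistic equation to give EC50 and Emax. Read-out is Fluo-4 fluorescence ratio in hM1-transfected CHO-K1 cells, measured kinetically on FDSS.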

[3] = increase in the EC20 acetylcholine response

Compound | EC50 (human mAChRM1 [1]) | Emax (human mAChRM1 [1]) | Emax (human mAChRM1 [2]) | EC50 (human mAChRM1 [2]; [3]) | Agonist Activity Human M1 EC50 (human mAChRM1 [1]) | PAM Activity Human M1 EC50 (human mAChRM1 [2]; [3])
CC(C)(O)c1cc(-c2cc(F)c(CN3Cc4ncccc4C3=O)c(F)c2)cc2cccnc12 [Compound 39, 6-(2,6-difluoro-4-(8-(2-hydroxypropan-2-yl)quinolin-6-yl)benzyl)-6,7-dihydro-5H-pyrrolo[3,4-b]pyridin-5-one] | ≥ 10000 nM | 8% | 72% | 472 nM |  | 
Cn1cc(-c2cc(F)c(CN3Cc4ncccc4C3=O)c(F)c2)c2ccc(C(C)(C)O)cc21 [Compound 40, 6-(2,6-difluoro-4-(6-(2-hydroxypropan-2-yl)-1-methyl-1H-indol-3-yl)benzyl)-6,7-dihydro-5H-pyrrolo[3,4-b]pyridin-5-one] |  |  | 73% | 2190 nM | inactive | 
Cn1cc2cc(-c3cc(F)c(CN4Cc5ncccc5C4=O)c(Cl)c3)cc(C(C)(C)O)c2n1 [Compound 41, 6-(2-chloro-6-fluoro-4-(7-(2-hydroxypropan-2-yl)-2-methyl-2H-indazol-5-yl)benzyl)-6,7-dihydro-5H-pyrrolo[3,4-b]pyridin-5-one] | ≥ 10000 nM | 12% | 67% | 422 nM |  | 
CC(C)(O)c1cncc(-c2cc(F)c(CN3Cc4ncccc4C3=O)c(F)c2)c1 [Compound 42, 6-(2,6-difluoro-4-(5-(2-hydroxypropan-2-yl)pyridin-3-yl)benzyl)-6,7-dihydro-5H-pyrrolo[3,4-b]pyridin-5-one] |  |  | 48% | ≥ 10000 nM | inactive | 
CC(C)(O)c1cccc(-c2cc(F)c(CN3Cc4ncccc4C3=O)c(F)c2)c1 [Compound 43, 6-((3,5-difluoro-3′-(2-hydroxypropan-2-yl)-[1,1′-biphenyl]-4-yl)methyl)-6,7-dihydro-5H-pyrrolo[3,4-b]pyridin-5-one] |  |  | 64% | 3210 nM | inactive | 
CC(C)(O)c1ccc(-c2cc(F)c(CN3Cc4ncccc4C3=O)c(C(F)(F)F)c2)cc1 [Compound 44, 6-((3-fluoro-4′-(2-hydroxypropan-2-yl)-5-(trifluoromethyl)-[1,1′-biphenyl]-4-yl)methyl)-6,7-dihydro-5H-pyrrolo[3,4-b]pyridin-5-one] |  |  | 61% | 5680 nM | inactive | 
CC(C)(O)c1ccc(-c2cc(F)c(CN3Cc4ncccc4C3=O)c(Cl)c2)cc1 [Compound 45, 6-((3-chloro-5-fluoro-4′-(2-hydroxypropan-2-yl)-[1,1′-biphenyl]-4-yl)methyl)-6,7-dihydro-5H-pyrrolo[3,4-b]pyridin-5-one] |  |  | 66% | 1030 nM | inactive | 
CC(C)(O)c1ccc(-c2cc(Cl)c(CN3Cc4ncccc4C3=O)c(Cl)c2)cc1 [Compound 46, 6-((3,5-dichloro-4′-(2-hydroxypropan-2-yl)-[1,1′-biphenyl]-4-yl)methyl)-6,7-dihydro-5H-pyrrolo[3,4-b]pyridin-5-one] |  |  | 65% | 1440 nM | inactive | 
CC(C)(O)c1c(F)cc(-c2cc(F)c(CN3Cc4ncccc4C3=O)c(F)c2)cc1F [Compound 47, 6-((3,3′,5,5′-tetrafluoro-4′-(2-hydroxypropan-2-yl)-[1,1′-biphenyl]-4-yl)methyl)-6,7-dihydro-5H-pyrrolo[3,4-b]pyridin-5-one] |  |  | 34% | 1830 nM | inactive | 
CC(C)(O)c1cc(F)c(-c2cc(F)c(CN3Cc4ncccc4C3=O)c(F)c2)cc1F [Compound 48, 6-((2′,3,5,5′-tetrafluoro-4′-(2-hydroxypropan-2-yl)-[1,1′-biphenyl]-4-yl)methyl)-6,7-dihydro-5H-pyrrolo[3,4-b]pyridin-5-one] |  |  |  |  | inactive | inactive
CC(C)(O)c1ccc(-c2cc(F)c(CN3Cc4ncccc4C3=O)cc2F)cc1 [Compound 49, 6-((2,5-difluoro-4′-(2-hydroxypropan-2-yl)-[1,1′-biphenyl]-4-yl)methyl)-6,7-dihydro-5H-pyrrolo[3,4-b]pyridin-5-one] |  |  | 66% | 1200 nM | inactive | 
Cc1cc(-c2cc(C(C)(C)O)c3nn(C)cc3c2)cc(F)c1CN1Cc2ncccc2C1=O [Compound 50, 6-(2-fluoro-4-(7-(2-hydroxypropan-2-yl)-2-methyl-2H-indazol-5-yl)-6-methylbenzyl)-6,7-dihydro-5H-pyrrolo[3,4-b]pyridin-5-one] |  |  | 66% | 784 nM | inactive | 
Cn1nc2cc(C(C)(C)O)ccc2c1-c1cc(F)c(CN2Cc3ncccc3C2=O)c(F)c1 [Compound 51] |  |  | 30% | ≥ 10000 nM | inactive | 
Cn1nc(-c2cc(F)c(CN3Cc4ncccc4C3=O)c(F)c2)c2ccc(C(C)(C)O)cc21 [Compound 52, 6-(2,6-difluoro-4-(6-(2-hydroxypropan-2-yl)-1-methyl-1H-indazol-3-yl)benzyl)-6,7-dihydro-5H-pyrrolo[3,4-b]pyridin-5-one] |  |  | 58% | 9570 nM | inactive | 
Cc1cc(-c2ccc(C(C)(C)O)c3ncccc23)cc(F)c1CN1Cc2ncccc2C1=O [Compound 53, 6-(2-fluoro-4-(8-(2-hydroxypropan-2-yl)quinolin-5-yl)-6-methylbenzyl)-6,7-dihydro-5H-pyrrolo[3,4-b]pyridin-5-one] |  |  | 53% | 5870 nM | inactive | 
CCC(O)(CC)c1ccc(-c2cc(F)c(CN3Cc4ncccc4C3=O)c(F)c2)c2cn(C)nc12 [Compound 54, 6-(2,6-difluoro-4-(7-(3-hydroxypentan-3-yl)-2-methyl-2H-indazol-4-yl)benzyl)-6,7-dihydro-5H-pyrrolo[3,4-b]pyridin-5-one] |  |  | 66% | 2290 nM | inactive | 
CCC(O)(CC)c1ccc(-c2cc(C)c(CN3Cc4ncccc4C3=O)c(F)c2)c2cn(C)nc12 [Compound 55, 6-(2-fluoro-4-(7-(3-hydroxypentan-3-yl)-2-methyl-2H-indazol-4-yl)-6-methylbenzyl)-6,7-dihydro-5H-pyrrolo[3,4-b]pyridin-5-one] |  |  | 67% | 2720 nM | inactive | 
Cc1c(C(C)(C)O)ccc(-c2cc(F)c(CN3Cc4ncccc4C3=O)c(F)c2)c1F [Compound 56, 6-((2′,3,5-trifluoro-4′-(2-hydroxypropan-2-yl)-3′-methyl-[1,1′-biphenyl]-4-yl)methyl)-6,7-dihydro-5H-pyrrolo[3,4-b]pyridin-5-one] |  |  | 50% | 5160 nM | inactive | 
Cn1cc2c(-c3ccc(CN4Cc5ncccc5C4=O)c(F)c3)ccc(C(C)(C)O)c2n1 [Compound 57, 6-(2-fluoro-4-(7-(2-hydroxypropan-2-yl)-2-methyl-2H-indazol-4-yl)benzyl)-6,7-dihydro-5H-pyrrolo[3,4-b]pyridin-5-one] | 5070 nM | 11% | 69% | 181 nM |  | 
Cc1cc(-c2ccc(C(C)(C)O)c3nn(C)cc23)ccc1CN1Cc2ncccc2C1=O [Compound 58, 6-(4-(7-(2-hydroxypropan-2-yl)-2-methyl-2H-indazol-4-yl)-2-methylbenzyl)-6,7-dihydro-5H-pyrrolo[3,4-b]pyridin-5-one] | ≥ 10000 nM | 23% | 71% | 278 nM |  | 
Cn1cc2c(-c3ccc(CN4Cc5ncccc5C4=O)cc3)ccc(C(C)(C)O)c2n1 [Compound 59, 6-(4-(7-(2-hydroxypropan-2-yl)-2-methyl-2H-indazol-4-yl)benzyl)-6,7-dihydro-5H-pyrrolo[3,4-b]pyridin-5-one] | ≥ 10000 nM | 16% | 67% | 396 nM |  | 
COc1cc(-c2ccc(C(C)(C)O)c3nn(C)cc23)cc(F)c1CN1Cc2ncccc2C1=O [Compound 60, 6-(2-fluoro-4-(7-(2-hydroxypropan-2-yl)-2-methyl-2H-indazol-4-yl)-6-methoxybenzyl)-6,7-dihydro-5H-pyrrolo[3,4-b]pyridin-5-one] |  |  | 68% | 163 nM | inactive | 
Cn1cc2c(-c3cc(F)c(CN4Cc5ncccc5C4=O)c(Cl)c3)ccc(C(C)(C)O)c2n1 [Compound 61, 6-(2-chloro-6-fluoro-4-(7-(2-hydroxypropan-2-yl)-2-methyl-2H-indazol-4-yl)benzyl)-6,7-dihydro-5H-pyrrolo[3,4-b]pyridin-5-one] | 4610 nM | 18% | 70% | 103 nM |  | 
Cn1cc2c(-c3cc(F)c(CN4Cc5ncccc5C4=O)cc3F)ccc(C(C)(C)O)c2n1 [Compound 62, 6-(2,5-difluoro-4-(7-(2-hydroxypropan-2-yl)-2-methyl-2H-indazol-4-yl)benzyl)-6,7-dihydro-5H-pyrrolo[3,4-b]pyridin-5-one] | ≥ 10000 nM | 30% | 73% | 180 nM |  | 
